Experimental data published in ChEMBL document CHEMBL5352486, “Design, synthesis, in vitro - In vivo biological evaluation of novel thiazolopyrimidine compounds as antileishmanial agent with PTR1 inhibition” (Eur J Med Chem, 2023).
Converted amounts (≈) assume the structure as drawn. The source made the active and inactive calls. The calls are words filed in the database; no cut-off is given here.

Tests used:
Leishmania infantum [1] = assay: Antileishmanial activity against Leishmania infantum MHOM/TN/1980/IPT1 incubated for 48 hrs by Neubauer hemocytometer analysis; type: functional, organism-based; settings: MHOM/TN/1980/IPT1, 48 h
Leishmania infantum [2] = assay: Antileishmanial activity against Leishmania infantum MHOM/TN/1980/IPT1 incubated for 48 hrs by XTT method; type: functional, organism-based; settings: MHOM/TN/1980/IPT1, 48 h
Leishmania tropica [3] = assay: Antileishmanial activity against Leishmania tropica MHOM/A7/1974/SAF-K27 incubated for 48 hrs by XTT method; type: functional, organism-based; settings: MHOM/A7/1974/SAF-K27, 48 h
RAW264.7 = assay: (§1) Cytotoxicity against mouse RAW264.7 cells by alamar blue method; type: toxicity, cell-based; settings: raw264.7
[4] = as §1; type: toxicity, cell-based; settings: mouse, RAW264.7 cells
[5] = (§2) Cytotoxicity against mouse L929 cells by alamar blue method; type: toxicity, cell-based; settings: mouse, L929 cells
L929 = assay: as §2; type: toxicity, cell-based; settings: l929
Leishmania tropica [6] = assay: Antileishmanial activity against Leishmania tropica MHOM/A7/1974/SAF-K27 incubated for 48 hrs by Neubauer hemocytometer analysis; type: functional, organism-based; settings: MHOM/A7/1974/SAF-K27, 48 h
[7] = system: DHFR (human) versus PTR1 (Leishmania major); assay: Selectivity index, ratio of IC50 for human DHFR to IC50 for Leishmania major PTR1; type: toxicity; settings: human DHFR enzyme and Leishmania major PTR1 enzyme, read-out: Ratio IC50
Pteridine reductase 1 = target: T1, Pteridine reductase 1 (Leishmania major, UniProt Q01782); assay: Inhibition of recombinant Leishmania major PTR1 expressed in Escherichia coli BL21 using folic acid as substrate in presence of NADPH
T1 sequence (Q01782 whole entry): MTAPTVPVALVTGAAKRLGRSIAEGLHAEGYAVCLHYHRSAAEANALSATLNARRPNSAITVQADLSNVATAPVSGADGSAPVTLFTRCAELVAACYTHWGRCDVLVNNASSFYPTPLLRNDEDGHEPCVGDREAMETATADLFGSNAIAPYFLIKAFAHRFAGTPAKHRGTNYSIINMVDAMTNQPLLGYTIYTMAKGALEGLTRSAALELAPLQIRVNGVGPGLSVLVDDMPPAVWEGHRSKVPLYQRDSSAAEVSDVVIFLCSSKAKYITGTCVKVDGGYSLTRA

Dihydrofolate reductase = target: T2, Dihydrofolate reductase (Homo sapiens, UniProt P00374); assay: Inhibition of human DHFR using dihydrofolate as substrate in presence of NADPH; type: toxicity
T2 sequence (P00374 whole entry): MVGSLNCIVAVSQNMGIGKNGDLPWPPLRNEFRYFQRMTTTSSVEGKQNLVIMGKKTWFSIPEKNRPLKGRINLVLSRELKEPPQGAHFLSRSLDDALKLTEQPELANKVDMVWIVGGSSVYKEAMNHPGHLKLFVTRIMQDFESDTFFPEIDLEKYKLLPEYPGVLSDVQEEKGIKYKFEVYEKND

Leishmania infantum [8] = assay: Antileishmanial activity against Leishmania infantum infected in BALB/c mouse model of visceral leishmaniasis assessed as footpad lesion development at 50 mg/kg/day, IM administered for 21 days and measured after 6 weeks by Giemsa staining based analysis (reference value: 25.81 +/- 0.84); type: functional; settings: time 21.0 day
Leishmania infantum [9] = assay: Antileishmanial activity against Leishmania infantum infected in BALB/c mouse model of visceral leishmaniasis assessed as footpad lesion development at 50 mg/kg/day, IM administered for 21 days and measured after 3 weeks by Giemsa staining based analysis (reference value: 28.94 +/- 0.59); type: functional; settings: time 21.0 day
Leishmania infantum [10] = assay: Antileishmanial activity against Leishmania infantum infected in BALB/c mouse model of cutaneous leishmaniasis assessed as parasite growth in liver at 50 mg/kg/day, ID administered for 21 days; type: functional, organism-based; settings: time 21.0 day
Leishmania infantum [11] = assay: Antileishmanial activity against Leishmania infantum infected in BALB/c mouse model of cutaneous leishmaniasis assessed as footpad lesion development at 50 mg/kg/day, ID administered for 21 days and measured after 2 weeks by Giemsa staining based analysis (reference value: 1.61 +/- 0.03); type: functional; settings: time 21.0 day
Leishmania infantum [12] = assay: Antileishmanial activity against Leishmania infantum infected in BALB/c mouse model of visceral leishmaniasis assessed as footpad lesion development at 50 mg/kg/day, IM administered for 21 days and measured after 5 weeks by Giemsa staining based analysis (reference value: 27.04 +/- 0.65); type: functional; settings: time 21.0 day
Leishmania infantum [13] = assay: Antileishmanial activity against Leishmania infantum infected in BALB/c mouse model of cutaneous leishmaniasis assessed as footpad lesion development at 50 mg/kg/day, ID administered for 21 days and measured after 4 weeks by Giemsa staining based analysis (reference value: 1.90 +/- 0.03); type: functional; settings: time 21.0 day
Leishmania infantum [14] = assay: Antileishmanial activity against Leishmania infantum infected in BALB/c mouse model of cutaneous leishmaniasis assessed as footpad lesion development at 50 mg/kg/day, ID administered for 21 days and measured after 16 weeks by Giemsa staining based analysis (reference value: 4.20 +/- 0.03); type: functional; settings: time 21.0 day
Leishmania infantum [15] = assay: Antileishmanial activity against Leishmania infantum infected in BALB/c mouse model of cutaneous leishmaniasis assessed as footpad lesion development at 50 mg/kg/day, ID administered for 21 days and measured after 6 weeks by Giemsa staining based analysis (reference value: 2.40 +/- 0.03); type: functional; settings: time 21.0 day
Leishmania infantum [16] = assay: Antileishmanial activity against Leishmania infantum infected in BALB/c mouse model of cutaneous leishmaniasis assessed as footpad lesion development at 50 mg/kg/day, ID administered for 21 days and measured after 12 weeks by Giemsa staining based analysis (reference value: 3.61 +/- 0.03); type: functional; settings: time 21.0 day
Leishmania infantum [17] = assay: Antileishmanial activity against Leishmania infantum infected in BALB/c mouse model of visceral leishmaniasis assessed as footpad lesion development at 50 mg/kg/day, IM administered for 21 days and measured after 11 weeks by Giemsa staining based analysis (reference value: 20.71 +/- 0.48); type: functional; settings: time 21.0 day
Leishmania infantum [18] = assay: Antileishmanial activity against Leishmania infantum infected in BALB/c mouse model of visceral leishmaniasis assessed as footpad lesion development at 50 mg/kg/day, IM administered for 21 days and measured after 1 week by Giemsa staining based analysis (reference value: 30.43 +/- 0.60); type: functional; settings: time 21.0 day
Leishmania infantum [19] = assay: Antileishmanial activity against Leishmania infantum infected in BALB/c mouse model of visceral leishmaniasis assessed as footpad lesion development at 50 mg/kg/day, IM administered for 21 days and measured after 2 weeks by Giemsa staining based analysis (reference value: 29.73 +/- 0.63); type: functional; settings: time 21.0 day
Leishmania infantum [20] = assay: Antileishmanial activity against Leishmania infantum infected in BALB/c mouse model of cutaneous leishmaniasis assessed as footpad lesion development at 50 mg/kg/day, ID administered for 21 days and measured after 8 weeks by Giemsa staining based analysis (reference value: 3.13 +/- 0.03); type: functional; settings: time 21.0 day
Leishmania infantum [21] = assay: Antileishmanial activity against Leishmania infantum infected in BALB/c mouse model of cutaneous leishmaniasis assessed as footpad lesion development at 50 mg/kg/day, ID administered for 21 days and measured after 26 weeks by Giemsa staining based analysis (reference value: 4.91 +/- 0.01); type: functional; settings: time 21.0 day
Leishmania infantum [22] = assay: Antileishmanial activity against Leishmania infantum infected in BALB/c mouse model of visceral leishmaniasis assessed as footpad lesion development at 50 mg/kg/day, IM administered for 21 days and measured after 9 weeks by Giemsa staining based analysis (reference value: 22.75 +/- 0.71); type: functional; settings: time 21.0 day
Leishmania infantum [23] = assay: Antileishmanial activity against Leishmania infantum infected in BALB/c mouse model of cutaneous leishmaniasis assessed as footpad lesion development at 50 mg/kg/day, ID administered for 21 days and measured after 32 weeks by Giemsa staining based analysis (reference value: 4.91 +/- 0.01); type: functional; settings: time 21.0 day
Leishmania infantum [24] = assay: Antileishmanial activity against Leishmania infantum infected in BALB/c mouse model of cutaneous leishmaniasis assessed as parasite growth in foodpad at 50 mg/kg/day, ID administered for 21 days; type: functional, organism-based; settings: time 21.0 day
Leishmania infantum [25] = assay: Antileishmanial activity against Leishmania infantum infected in BALB/c mouse model of cutaneous leishmaniasis assessed as footpad lesion development at 50 mg/kg/day, ID administered for 21 days and measured after 14 weeks by Giemsa staining based analysis (reference value: 3.88 +/- 0.03); type: functional; settings: time 21.0 day
Leishmania infantum [26] = assay: Antileishmanial activity against Leishmania infantum infected in BALB/c mouse model of visceral leishmaniasis assessed as parasite growth in spleen at 50 mg/kg/day, IM administered for 21 days; type: functional, organism-based; settings: time 21.0 day
Leishmania infantum [27] = assay: Antileishmanial activity against Leishmania infantum infected in BALB/c mouse model of visceral leishmaniasis assessed as footpad lesion development at 50 mg/kg/day, IM administered for 21 days and measured after 8 weeks by Giemsa staining based analysis (reference value: 23.84 +/- 0.93); type: functional; settings: time 21.0 day
Leishmania infantum [28] = assay: Antileishmanial activity against Leishmania infantum infected in BALB/c mouse model of cutaneous leishmaniasis assessed as footpad lesion development at 50 mg/kg/day, ID administered for 21 days and measured after 10 weeks by Giemsa staining based analysis (reference value: 3.40 +/- 0.03); type: functional; settings: time 21.0 day
Leishmania infantum [29] = assay: Antileishmanial activity against Leishmania infantum infected in BALB/c mouse model of visceral leishmaniasis assessed as footpad lesion development at 50 mg/kg/day, IM administered for 21 days and measured after 4 weeks by Giemsa staining based analysis (reference value: 28.01 +/- 0.65); type: functional; settings: time 21.0 day
Leishmania infantum [30] = assay: Antileishmanial activity against Leishmania infantum infected in BALB/c mouse model of cutaneous leishmaniasis assessed as footpad lesion development at 50 mg/kg/day, ID administered for 21 days and measured after 18 weeks by Giemsa staining based analysis (reference value: 4.42 +/- 0.03); type: functional; settings: time 21.0 day
Leishmania infantum [31] = assay: Antileishmanial activity against Leishmania infantum infected in BALB/c mouse model of cutaneous leishmaniasis assessed as footpad lesion development at 50 mg/kg/day, ID administered for 21 days and measured after 22 weeks by Giemsa staining based analysis (reference value: 4.71 +/- 0.04); type: functional; settings: time 21.0 day
Leishmania infantum [32] = assay: Antileishmanial activity against Leishmania infantum infected in BALB/c mouse model of visceral leishmaniasis assessed as parasite growth in liver at 50 mg/kg/day, IM administered for 21 days; type: functional, organism-based; settings: time 21.0 day
Leishmania infantum [33] = assay: Antileishmanial activity against Leishmania infantum infected in BALB/c mouse model of visceral leishmaniasis assessed as footpad lesion development at 50 mg/kg/day, IM administered for 21 days and measured after 7 weeks by Giemsa staining based analysis (reference value: 24.85 +/- 0.88); type: functional; settings: time 21.0 day
Leishmania infantum [34] = assay: Antileishmanial activity against Leishmania infantum infected in BALB/c mouse model of cutaneous leishmaniasis assessed as parasite growth in spleen at 50 mg/kg/day, ID administered for 21 days; type: functional, organism-based; settings: time 21.0 day
Leishmania infantum [35] = assay: Antileishmanial activity against Leishmania infantum infected in BALB/c mouse model of visceral leishmaniasis assessed as footpad lesion development at 50 mg/kg/day, IM administered for 21 days and measured after 10 weeks by Giemsa staining based analysis (reference value: 21.58 +/- 0.74); type: functional; settings: time 21.0 day
Leishmania infantum [36] = assay: Antileishmanial activity against Leishmania infantum infected in BALB/c mouse model of cutaneous leishmaniasis assessed as footpad lesion development at 50 mg/kg/day, ID administered for 21 days and measured after 30 weeks by Giemsa staining based analysis (reference value: 4.92 +/- 0.01); type: functional; settings: time 21.0 day
Leishmania infantum [37] = assay: Antileishmanial activity against Leishmania infantum infected in BALB/c mouse model of cutaneous leishmaniasis assessed as footpad lesion development at 50 mg/kg/day, ID administered for 21 days and measured after 24 weeks by Giemsa staining based analysis (reference value: 4.90 +/- 0.02); type: functional; settings: time 21.0 day
Leishmania infantum [38] = assay: Antileishmanial activity against Leishmania infantum infected in BALB/c mouse model of cutaneous leishmaniasis assessed as footpad lesion development at 50 mg/kg/day, ID administered for 21 days and measured after 28 weeks by Giemsa staining based analysis (reference value: 4.92 +/- 0.01); type: functional; settings: time 21.0 day
Leishmania infantum [39] = assay: Antileishmanial activity against Leishmania infantum infected in BALB/c mouse model of cutaneous leishmaniasis assessed as footpad lesion development at 50 mg/kg/day, ID administered for 21 days and measured after 20 weeks by Giemsa staining based analysis (reference value: 4.54 +/- 0.04); type: functional; settings: time 21.0 day

O=C(Nc1nc2cnc(N3CCCC3)nc2s1)c1ccc(Cl)c([N+](=O)[O-])c1
IC50 (Leishmania infantum [1]): 12.3 µg/mL (≈ 30.3 µM)
IC50 (Leishmania infantum [2]): 12.7 µg/mL (≈ 31.3 µM)
IC50 (Leishmania tropica [3]): 10.6 µg/mL (≈ 26.2 µM)
log10 IC50 (µg/mL) (RAW264.7): 0.95
IC50 [4]: 8.98 µg/mL (≈ 22.2 µM)
IC50 [5]: 24.4 µg/mL (≈ 60.2 µM)
log10 IC50 (µg/mL) (L929): 1.39
IC50 (Leishmania tropica [6]): 10.2 µg/mL (≈ 25.1 µM)
selectivity ratio [7]: 25.1
IC50 (Pteridine reductase 1): 14.9 µM
IC50 (Dihydrofolate reductase): 373 µM

Meglumine antimoniate
Activity (Leishmania infantum [8]): 25.3
Activity (Leishmania infantum [9]): 28.5
Activity (Leishmania infantum [10]): Active
Activity (Leishmania infantum [11]): 1.56
Activity (Leishmania infantum [12]): 26.3
Activity (Leishmania infantum [13]): 1.87
Activity (Leishmania infantum [14]): 4.2
Activity (Leishmania infantum [15]): 2.39
Activity (Leishmania infantum [16]): 3.61
Activity (Leishmania infantum [17]): 30.3
Activity (Leishmania infantum [18]): 30.8
Activity (Leishmania infantum [19]): 29.4
Activity (Leishmania infantum [20]): 3.09
Activity (Leishmania infantum [21]): 4.69
Activity (Leishmania infantum [22]): 28.7
Activity (Leishmania infantum [23]): 1.7
Activity (Leishmania infantum [24]): Active
Activity (Leishmania infantum [25]): 3.84
Activity (Leishmania infantum [26]): Active
Activity (Leishmania infantum [27]): 27.7
Activity (Leishmania infantum [28]): 3.4
Activity (Leishmania infantum [29]): 27.4
Activity (Leishmania infantum [30]): 4.42
Activity (Leishmania infantum [31]): 4.69
Activity (Leishmania infantum [32]): Active
Activity (Leishmania infantum [33]): 26.7
Activity (Leishmania infantum [34]): Active
Activity (Leishmania infantum [35]): 29.3
Activity (Leishmania infantum [36]): 2.16
Activity (Leishmania infantum [37]): 4.9
Activity (Leishmania infantum [38]): 3.49
Activity (Leishmania infantum [39]): 4.53
